Laboratory results published in US20140276107A1, “PHOTODYNAMIC DIAGNOSIS” (Photocure ASA, priority 2011, published 2014).

Legend:
[1] = system: normal and Barrett's tissue of the esophagus; assay: Spectrofluorimetry (LIFS) of PpIX fluorescence intensity in the esophagus of patients suffering from Barrett's esophagus; assay type: in vivo, human; details: for porphyrin (PpIX) fluorescence in normal tissue compared to Barrett's tissue: ALA 20 mg/kg orally 4-5 hours before endoscopy (5 subjects), HAL 8 mM solution by local instillation 2 hours before endoscopy (3 subjects)
Description: Spectrofluorimetry (LIFS) measurements (fluorescence intensity of PpIX in the esophagus) were carried out on 8 patients suffering from Barrett's esophagus. The measurements were carried out after oral administration of 5-ALA (ALA) or local instillation of 5-ALA hexyl ester (HAL) and the fluorescence intensity of normal and Barrett's tissue was compared.
LIFS was carried out using the Karl Storz D-light system. Abnormal cells could be clearly delineated against normal tissue due to the porphyrin fluorescence resulting from an accumulation of the ALA or HAL in the abnormal tissue. For this purpose, blue light of a specific spectral composition was introduced into the body via an endoscopic light guide system. • Patient group 1: 5 subjects each received 20 mg/kg body weight ALA orally, 4-5 hours before endoscopy. • Patient group 2: 3 subjects each received a 8 mM solution of HAL in an aqueous buffer by local instillation (100 mg in 50 mL, i.e. 0.2%), 2 hours before endoscopy.

[2] = system: dysplastic tissue in Barrett's esophagus; details: cited from earlier work

| Structure (SMILES) | porphyrin (PpIX) fluorescence in normal tissue compared to Barrett's tissue ([1]; FIG. 1) | intensity of fluorescence in the normal epithelium, HAL versus ALA ([1]; FIG. 1, normal epithelium, HAL 8 mM local instillation vs ALA 20 mg/kg orally) | fluorescence intensity of PpIX in the Barrett and normal mucosa ([1]; FIG. 2, one of the patients receiving HAL) | intensity of fluorescence in the normal and Barrett epithelium, HAL compared to ALA ([1]; normal and Barrett epithelium, background fluorescence) | distinction of high-grade dysplastic from non-dysplastic epithelial tissue ([2]; Brand et al. 2002) | detection of high-grade intraepithelial neoplasia and adenocarcinoma ([2]; Stepinac et al. 2003) | detection of low-grade neoplastic tissue ([2]; Stepinac et al. 2003) | specificity for detection of dysplastic tissue ([2]; systemic application of 5-ALA at 20 mg/kg and 30 mg/kg, high rate of false positive fluorescence) |
| --- | --- | --- | --- | --- | --- | --- | --- | --- |
| CCCCCCOC(=O)CCC(=O)CN [HAL, 5-ALA hexyl ester] | significantly higher in normal tissue compared to Barrett's tissue | lower | stronger intensity for the normal mucosa | lower intensity of fluorescence | – | – | – | – |
| NCC(=O)CCC(=O)O [ALA, 5-aminolevulinic acid] | significantly higher in normal tissue compared to Barrett's tissue | – | – | – | can distinguish | effective | not accurate | poor |
